Data set [1] addresses T1, Na-Pi cotransporter (Canis lupus familiaris, UniProt A0A8I3NFY6).
T1 construct: were prepared from renal cortices of mongrel dogs, albino mice and New Zealand albino rabbits; from tissue; host or cells: mongrel dog renal cortex, brush border membrane vesicles
T1 sequence (A0A8I3NFY6 1-639): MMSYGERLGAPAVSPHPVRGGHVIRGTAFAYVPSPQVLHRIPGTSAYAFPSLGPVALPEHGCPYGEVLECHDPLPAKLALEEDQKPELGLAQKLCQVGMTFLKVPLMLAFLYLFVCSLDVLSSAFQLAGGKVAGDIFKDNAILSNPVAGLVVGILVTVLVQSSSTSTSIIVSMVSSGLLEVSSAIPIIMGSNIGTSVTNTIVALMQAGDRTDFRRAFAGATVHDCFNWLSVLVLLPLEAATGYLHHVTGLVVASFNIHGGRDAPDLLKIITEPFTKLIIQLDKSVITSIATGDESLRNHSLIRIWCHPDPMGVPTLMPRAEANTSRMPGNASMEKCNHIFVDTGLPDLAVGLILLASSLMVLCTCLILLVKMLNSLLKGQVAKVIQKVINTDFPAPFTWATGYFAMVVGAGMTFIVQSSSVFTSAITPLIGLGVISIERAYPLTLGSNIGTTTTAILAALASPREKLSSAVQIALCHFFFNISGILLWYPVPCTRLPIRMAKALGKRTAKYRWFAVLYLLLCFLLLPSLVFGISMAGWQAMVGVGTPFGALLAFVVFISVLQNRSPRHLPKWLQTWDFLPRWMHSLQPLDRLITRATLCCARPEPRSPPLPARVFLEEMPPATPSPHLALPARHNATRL
The data set can be described thus: Na+-gradient-dependent 32Pi uptake by renal BBMV, dog. The format is biochemical. The method, then:
(§1) The brush border membrane vesicles (BBMV) were prepared from renal cortical tissue of adult male Sprague-Dawley rats of an average body weight of about 220 grams. Rats were fed ad libitum standard rat chow containing 0.7% Pi and had free access to distilled water. Rats were sacrificed under anesthesia and dissected renal cortical tissue was used for preparation of BBMV fraction by the divalent cation-precipitation procedure, employed and described in detail in J. Clin. Invest., 67, 1347 (1981) and J. Biol. Chem., 258, 5695 (1983), with the following modifications: (a) MgCl2 instead of CaCl2 was added to crude homogenate (final concentration 10 mM MgCl2) to precipitate membranes other than BBMV; (b) in the final step, BBMV were washed and equilibrated in a medium of pH=7.5, instead of pH=8.5. The enrichment and specific activities of typical BBM enzymes alkaline phosphatase (APases), γ-glutyamyl transferase (γ-GTT), leucineaminopeptidase (LAP) and maltase with use of these modifications were similar as in BBMV fractions prepared in our previous studies. As a final step in the preparative procedure, the BBMV fraction was washed and resuspended in a medium containing 300 mM mannitol and 5 mM Tris-HEPES adjusted to pH=t.5, referred to as "MTH-medium," unless specified otherwise. The analogous BBMV fractions, using the same procedure, were prepared from renal cortices of mongrel dogs, albino mice and New Zealand albino rabbits.
The BBMV uptake of ^32 Pi, D-[^3 H]-glucose, L-[^3 H]-proline and ^22 Na^+ was measured by means of a rapid filtration technique, as described in J. Clin. Invest., 67, 1347 (1981) and Am. J. Physiol., 246, F133-F139 (1984). Also, unless specified otherwise, the medium for the solute uptake assay consisted of following compounds (in final concentrations): 100 mM mannitol, 100 mM NaCl (or 100 mM KC1) and 5 mM Tris-HEPES (pH=7.5) and eitehr 0.1 mM K2 H^32 PO4, or 0.05 mM D-[^3 H]-glucose, or 0.025 mM L-[^3 H]-proline. IN the ^22 Na^+ uptake studies, the assay medium contained 100 mM ^22 NaCl (^22 NaCl about […] per tube), 100 mM mannitol and 5 mM Tris-HEPES (pH 7.5).
In most experiments, the Na^+ -gradient-dependent ^32 Pi uptake in the concentrative "uphill" phase was measured at 20 seconds period. Since Na^+ -independent Pi uptake in this time period was quantitatively minor component (<5%) of the Na^+ -gradient-dependent Pi uptake, it was not routinely subtracted.

In data set [2] the test system is L-[^3 H]-proline uptake by BBMV. Put plainly: Na+-gradient-dependent uptake of L-[3H]-proline by renal BBMV. Type of data set: biochemical, rat. Particulars: 1 mM TPFA; mean ± SEM, n=4; control 43±3. The method, then: as §1, with “As a final step in the preparative procedure, the BBMV fraction was washed and resuspended in a medium containing 300 mM mannitol and 5 mM Tris-HEPES adjusted to pH=t.5, referred to as "MTH-medium," unless specified otherwise. The analogous BBMV fractions, using the same procedure, were prepared from renal cortices of mongrel dogs, albino mice and New Zealand albino rabbits.” left out
The BBMV uptake of ^32 Pi, D-[^3 H]-glucose, L-[^3 H]-proline and ^22 Na^+ was measured by means of a rapid filtration technique, as described in J. Clin. Invest., 67, 1347 (1981) and Am. […]

The conditions of data set [3]: in vivo; cited from earlier work.
The target in data set [4] is T2, Na-Pi cotransporter (Rattus norvegicus, UniProt Q06496).
T2 construct: from tissue; host or cells: rat renal cortex, brush border membrane vesicles
T2 sequence (Q06496 1-637): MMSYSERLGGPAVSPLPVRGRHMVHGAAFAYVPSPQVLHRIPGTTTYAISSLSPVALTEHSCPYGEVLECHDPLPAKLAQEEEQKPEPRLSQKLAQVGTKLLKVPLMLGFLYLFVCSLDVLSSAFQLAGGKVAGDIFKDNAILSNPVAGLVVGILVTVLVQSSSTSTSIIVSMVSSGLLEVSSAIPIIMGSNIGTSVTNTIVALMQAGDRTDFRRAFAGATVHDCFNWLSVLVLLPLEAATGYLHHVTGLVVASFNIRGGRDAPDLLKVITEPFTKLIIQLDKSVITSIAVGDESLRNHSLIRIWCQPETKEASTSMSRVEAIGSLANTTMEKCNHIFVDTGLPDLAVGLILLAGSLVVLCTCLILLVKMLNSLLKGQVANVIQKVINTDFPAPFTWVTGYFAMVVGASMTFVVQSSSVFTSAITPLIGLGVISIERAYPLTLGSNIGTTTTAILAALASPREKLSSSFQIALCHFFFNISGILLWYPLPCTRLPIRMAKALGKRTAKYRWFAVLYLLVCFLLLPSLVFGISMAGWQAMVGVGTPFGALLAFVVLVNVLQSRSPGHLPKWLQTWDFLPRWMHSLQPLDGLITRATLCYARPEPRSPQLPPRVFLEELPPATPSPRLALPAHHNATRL
Put plainly: Reversibility of TPFA inhibition: 32Pi uptake of BBMV after preincubation and washout. Type of data set: biochemical. How it is done: The reversibility of the inhibition of ^32 Pi transport across BBMV by TPFA was explored using the following protocol. […] The suspensions of BBMV were incubated for 10 min at room temperature. At the end of incubation period, incubation mixtures were diluted with 10 ml of ice-cold MTH-medium, resuspended and centrifuged at 35,000×g for 20 min. The supernatant was discarded and BBMV pellet was suspended in MTH-medium and then assayed for Na^+ -gradient-dependent ^32 Pi uptake.

The values below come from patent US4806532A, “Inhibition of epithelial phosphate transport” (Mayo Foundation for Medical Education and Research, priority 1985, dated 1989).

“And” between values parts separate entries of the source, which are not always exact repeats. Identical values can stand only once. Counter-ions that a name gives are not always drawn.

Regarding `O=C(O)P(=O)(O)O` [TPFA, Phosphonoformic acid, trisodium salt hexahydrate], the “32Pi-uptake 120 min” value at Na-Pi cotransporter [1] (1 mM TPFA, control 410 ± 5) is 377 ± 6 pmoles Pi/mg protein/time; at Na-Pi cotransporter [1] (5 mM TPFA), 428 ± 9 pmoles Pi/mg protein/time. Further, the “32Pi-uptake 20 sec” value on Na-Pi cotransporter [1] (1 mM TPFA, control 1178 ± 15) is recorded as 476 ± 9 pmoles Pi/mg protein/time; at Na-Pi cotransporter [1] (5 mM TPFA), 110 ± 3 pmoles Pi/mg protein/time. For the same compound, the inhibition at 1000 µM on Na-Pi cotransporter [1] (20 s, 1 mM TPFA, read-out: percent decrease of 20 sec 32Pi-uptake relative to control value) was 59.6%. For the same compound, on Na-Pi cotransporter [1] (20 s, 5 mM TPFA, read-out: percent decrease of 20 sec 32Pi-uptake relative to control value), the inhibition at 5000 µM amounted to 90.7%. Besides, in data set [2], the “equilibrium uptake of L-[3H]-proline at 120 minutes” value was 43+1 pmoles/mg protein. Also, in data set [3], the “toxic effects on bone in general toxicity studies” value is “not toxic effects on bone”. Further, the “32Pi uptake 120 min, TPFA-preincubated” value on Na-Pi cotransporter [4] (BBMV preincubated with 5 mM TPFA 10 min, diluted 1:10, washed, Experiments 1 and 2) was 326 ± 5 pmoles/mg protein and 293 ± 3 pmoles/mg protein. The “32Pi uptake 20 sec, TPFA-preincubated” value on Na-Pi cotransporter [4] (BBMV preincubated with 5 mM TPFA 10 min, diluted 1:10, washed, Experiments 1 and 2, mean ± SEM) was 1240 ± 25 pmoles/mg protein and 1128 ± 38 pmoles/mg protein. Further, at Na-Pi cotransporter [4] (versus control BBMV not exposed to TPFA), the “rate of Na+-gradient-dependent BBMV uptake of Pi after washout of TPFA by dilution” value is “indistinguishable from control BBMV”.
